From patent US8008007B2, “S-adenosyl-L-methionine analogs with extended activated groups for transfer by methyltransferases” (RWTH Aachen, priority 2005, dated 2011)

How the values were obtained:
Type in all cases: biochemical
M.TaqI [1] = target: T1, M.TaqI (Thermus aquaticus, UniProt P14385); assay: DNA protection assay with M.TaqI (wild-type) on phage lambda DNA; settings: 1 μg phage lambda DNA, cofactor 300 μM, 60° C. for 4 h, then R.TaqI; 1 u = minimal enzyme amount fully protecting 1 μg DNA
T1 construct: made in house
T1 sequence (P14385 whole entry): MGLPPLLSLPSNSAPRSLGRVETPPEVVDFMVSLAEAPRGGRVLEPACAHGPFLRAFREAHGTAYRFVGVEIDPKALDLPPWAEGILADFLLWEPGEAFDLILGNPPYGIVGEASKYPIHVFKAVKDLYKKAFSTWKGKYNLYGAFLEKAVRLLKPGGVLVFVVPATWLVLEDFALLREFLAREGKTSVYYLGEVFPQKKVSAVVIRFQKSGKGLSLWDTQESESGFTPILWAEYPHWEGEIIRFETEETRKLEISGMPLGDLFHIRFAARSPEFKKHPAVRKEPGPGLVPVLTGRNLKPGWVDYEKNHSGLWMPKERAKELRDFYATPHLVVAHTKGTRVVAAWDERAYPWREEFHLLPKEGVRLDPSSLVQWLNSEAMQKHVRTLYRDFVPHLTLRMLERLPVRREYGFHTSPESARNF
Source text: (§1) Transfer kinetics of the activated ethyl (—CH2CH3), propyl (—CH2CH2CH3), prop-2-enyl (—CH2CH═CH2), prop-2-ynyl (—CH2C≡CH), but-2-ynyl (—CH2C≡CCH3), pent-2-ynyl (—CH2C≡CCH2CH3) and benzyl group (—CH2C6H5) from cofactors 3-9 by the DNA adenine-N6 methyltransferase M.TaqI and its variant V21 G, the DNA cytosine-C5 methyltransferase M.HhaI and its variant Q82A, the DNA cytosine-N4 methyltransferase M.BcnIB and the DNA cytosine-C5 methyltransferase M.SssI variant Q142A to phage lambda DNA (48502 base pairs) were investigated using a DNA protection assay. This assay makes use of the fact that DNA methyltransferase-catalyzed modifications of nucleobases within the recognition sequences of restriction endonucleases can protect the DNA against fragmentation by these enzymes. […] Unmodified DNA containing 5′-TCGA-3′ recognition sequences is readily fragmentated by R.TaqI. After DNA modification by M.TaqI in the presence of a cofactor with an activated group Z—R modified 5′-TCGA^Z—R-3′ sequences are formed and, as a result, R.TaqI is unable to fragment the modified DNA. Occurrence of fragmentation is then analyzed by agarose gel electrophoresis.
(§2) By varying the amounts of DNA methyltransferase, this assay is used to investigate the enzymatic activities of the different DNA methyltransferases with cofactors 3-9 and compare them to the enzymatic activities with the natural cofactor 1. The minimal amount of DNA methyltransferase needed to fully protect 1 μg of phage lambda DNA against restriction endonuclease fragmentation under the given experimental conditions is defined as one enzyme unit (u).
(§3) Afterwards a solution (30 μL) containing R.TaqI restriction endonuclease (40 u, MBI Fermentas), bovine serum albumin (0.166 mg/mL) and buffer (16.6 mM Tris hydrochloride, 166 mM sodium chloride, 8.3 mM magnesium chloride, pH 8.0) was added to each dilution and incubation at 60-65° C. was continued for 15 min. Loading buffer (10 μL, 0.25% bromphenol blue, 30% glycerol) was added to each sample, and aliquots (12 μL) were analyzed for the degree of protection by agarose gel (1%) electrophoresis. Parallel control experiments were performed with phage lambda DNA in the absence of M.TaqI and in the presence of M.TaqI (200 ng).
Afterwards a solution (10 μL) containing R.TaqI restriction endonuclease (10 u, MBI Fermentas), bovine serum albumin (0.1 mg/mL) and buffer (33 mM Tris acetate, 66 mM potassium acetate, 10 mM magnesium acetate, pH 7.9) was added to each dilution and incubation was continued at 65° C. for 1 h. […] Parallel control experiments were performed with phage lambda DNA in the absence of M.TaqI and in the presence of M.TaqI (180 ng).

M.TaqI [2] = target: T1, M.TaqI; assay: Modification of adenine-N6 in duplex oligodeoxynucleotide I.II by M.TaqI, nucleoside analysis by HPLC/ESI-MS; settings: 37° C. over night, near-stoichiometric enzyme
Source text: Transfer of the activated ethyl (CH2CH3), propyl (CH2CH2CH3), prop-2-enyl (CH2CHCH2), prop-2-ynyl group (CH2CCH), but-2-ynyl (CH2CCCH3), pent-2-ynyl (CH2CCCH2CH3) or benzyl group (CH2C6H5) from cofactors 3-9 by the DNA adenine-N6 methyltransferase M.TaqI, the DNA cytosine-C5 methyltransferase M.HhaI variant Q82A or the DNA cytosine-N4 methyltransferase M.BcnIB to DNA was first investigated using short duplex oligodeoxynucleotides as substrates. After enzymatic transfer the duplex oligodeoxynucleotides were enzymatically fragmented and the resulting modified nucleosides were analyzed by reversed-phase HPLC coupled with ESI-MS.
M.TaqI was denatured by heating to 95° C. for 10 min and removed by centrifugation ([…], 2 min). The modified duplex oligodeoxynucleotides I^Z—R-II were desalted by gel filtration (NAP-5 column, Amersham Biosciences, Freiburg, Germany), eluted with water (1 mL) and lyophilized.
The modified duplex oligodeoxynucleotides I^Z—R-II were dissolved in buffer (100 μL, 10 mM Tris hydrochloride, 10 mM magnesium chloride, 1 mM zinc acetate, pH 7.5) containing Nuclease PI (1500 u, Sigma, Taufkirchen, Germany) and calf intestine alkaline phosphatase (30 u, MBI Fermentas, St. Leon-Rot, Germany) and incubated at 37° C. for 4 h. Nucleosides were analyzed by reversed-phase HPLC (Symmetry-C18 5 μm, 100 Å, 250×4.6 mm, equipped with a Symmetry-C18 5 μm, 100 Å, 20×4.6 mm pre-column, Waters, Eschborn, Germany). Compounds were eluted with acetonitrile (5% for 7 min, followed by linear gradients to 6% in 15 min, to 35% in 8 min and to 70% in 2 min) in triethylammonium acetate buffer (10 mM, pH 7.0) at a flow of 1 mL/min and detected at 254 nm.
For HPLC-coupled ESI-MS measurements compounds were eluted with methanol (0% for 3 min, followed by a linear gradient to 100% in 22 min) in ammonium formate buffer (20 mM, pH 3.5). A post-column mobile phase modification (equal co-flow of 96% methanol, 4% formic acid) was used to enhance the detection efficiency of 2′-deoxyadenosine and its derivatives. Mass spectra were recorded in 200-370 m/z range.
The hemimethylated duplex oligodeoxynucleotide I.II (compare Scheme 5, Example 2A) was produced by mixing equal molar amounts of complementary single-stranded oligodeoxynucleotide I (5′-GCCGCTCGATGCCG-3′) (SEQ. ID NO. 1) and II (5′-CGGCATCGA^MeGCGGC-3′, A^Me=N6-methyl-2′-deoxyadenosine) (SEQ ID NO. 2) in water, heating at 85° C. for 5 min and slow cooling to room temperature. […] The solution was heated to 95° C. for 10 min, supplemented with Proteinase K and incubated at 55° C. for 2 h. Hydrolysis products were removed by gel filtration (G-25 column, Amersham Biosciences).
The obtained solution was treated with buffer ( 1/10 volume, 100 mM Tris hydrochlorid, 100 mM magnesium chloride, 10 mM zinc acetate, pH 7.5) containing Nuclease P1 (1.14 u, Sigma, Taufkirchen, Germany) and calf intestine alkaline phosphatase (18 u, MBI Fermentas), incubated at 42° C. for 4 h and passed through a Microcon YM-3 spin column (Amicon). Nucleosides were analyzed by reversed-phase HPLC (Discovery HS C18 75×2.1 mm, 3 μm, equipped with a Supelguard Discovery HS C18 20×2.1 mm, 5 μm, pre-column, Supelco, Germany) coupled with a mass spectrometric detector (HP 1100 series ESI-MS equipped with single quadruple). Compounds were eluted with methanol (0% for 3 min, followed by linear gradients to 20% in 15 min and to 80% in 2 min) in ammonium formate buffer (20 mM, pH 3.5) at a flow of 0.3 mL/min. For on-line mass spectrometric detection post-column mobile phase modification (equal co-flow of 96% methanol, 4% formic acid and 1 mM sodium hydroxide) was used to enhance the detection efficiency of 2′-deoxyadenosine, 2′-deoxycytidine and their derivatives. Mass spectra were recorded in 50-600 m/z range.

M.TaqI-V21G = target: T2, M.TaqI-V21G (Thermus aquaticus, UniProt P14385, V21G); assay: DNA protection assay with M.TaqI variant V21G on phage lambda DNA; settings: 1 μg phage lambda DNA, cofactor 300 μM, 60° C. for 4 h, then R.TaqI
T2 construct: made in house
T2 sequence (P14385 whole entry V21G): as the sequence (P14385 whole entry) above, with V21G counted along it
Source text: as §1, §2, §3
Therefore, the codon for V21 was changed to a codon for glycine by standard PCR mutagenesis (Ho et al., (1989) Gene 77, 51-59) and the correct DNA sequence of the complete gene was verified by DNA sequencing. […] The DNA protection assay with the V21G variant was performed as described for the wild type (Example 3A.1).

M.HhaI-Q82A = target: T3, M.HhaI-Q82A (Haemophilus parahaemolyticus, UniProt P05102, Q82A); assay: DNA protection assay with M.HhaI variant Q82A on phage lambda DNA; settings: 1.16 μg phage lambda DNA, cofactor 300 μM, 37° C. for 4 h, then R.Hin6I; pH 7.4 (pH 6.0 for cofactor 6)
T3 construct: made in house
T3 sequence (P05102 whole entry Q82A): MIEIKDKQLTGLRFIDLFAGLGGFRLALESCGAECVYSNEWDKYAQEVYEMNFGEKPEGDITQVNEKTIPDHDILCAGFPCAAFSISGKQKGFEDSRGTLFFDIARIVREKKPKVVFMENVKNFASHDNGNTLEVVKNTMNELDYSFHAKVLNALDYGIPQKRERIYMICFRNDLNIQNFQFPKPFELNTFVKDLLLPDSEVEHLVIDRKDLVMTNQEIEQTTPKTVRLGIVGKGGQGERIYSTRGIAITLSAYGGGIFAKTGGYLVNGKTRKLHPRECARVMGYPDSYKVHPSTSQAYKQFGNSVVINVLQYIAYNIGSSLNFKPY
Source text: as §1, §2
(§4) Afterwards, the reactions were stopped by heating to 80° C. for 10 min. […] Parallel control experiments were performed with phage lambda DNA in the absence of M.HhaI and in the presence of M.HhaI (278 ng).
The DNA protection assay with the M.HhaI variant Q82A (see Example 2B) was performed as described for the wild type enzyme (Example 3B.1).

M.SssI-Q142A = target: T4, M.SssI-Q142A (Spiroplasma monobiae, UniProt P15840, Q142A); assay: DNA protection assay with M.SssI variant Q142A on phage lambda DNA; settings: 1 μg phage lambda DNA, cofactor 300 μM, 37° C. for 4 h, then R.BstUI
T4 construct: made in house
T4 sequence (P15840 whole entry Q142A): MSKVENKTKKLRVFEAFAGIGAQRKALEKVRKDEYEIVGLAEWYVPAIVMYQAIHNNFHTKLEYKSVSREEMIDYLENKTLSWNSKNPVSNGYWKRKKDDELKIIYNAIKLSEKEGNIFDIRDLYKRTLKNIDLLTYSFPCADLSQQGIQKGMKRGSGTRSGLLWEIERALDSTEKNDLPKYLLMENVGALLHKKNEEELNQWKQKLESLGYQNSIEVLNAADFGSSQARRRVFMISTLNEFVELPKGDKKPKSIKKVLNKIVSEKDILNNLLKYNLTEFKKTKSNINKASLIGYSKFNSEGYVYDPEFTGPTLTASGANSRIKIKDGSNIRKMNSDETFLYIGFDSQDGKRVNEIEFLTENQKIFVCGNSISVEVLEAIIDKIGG
Source text: as §1
By varying the amounts of DNA methyltransferase, this assay is used to investigate the enzymatic activities of the different DNA methyltransferases with cofactors 3-9 and compare them to the enzymatic activities with the natural cofactor 1. […]
Two fold serial dilutions (20 μL) of M.SssI-Q142A (starting with 3300 ng, 73 pmol) in buffer (10 mM Tris hydrochloride, 50 mM sodium chloride, 1 mM dithiothreitol, pH 7.9), phage lambda DNA (1 μg, 31.3 fmol, 3113 5′-CG-3′ recognition sequences, […] recognition sequences, MBI Fermentas) and the natural cofactor 1 (300 μM) or cofactor analogs 5 and 7 (300 μM) were incubated at 37° C. for 4 h. […] Loading buffer (10 μL, 0.25% bromphenol blue, 30% glycerol) was added to each sample, and aliquots (15 μL) were analyzed for the degree of protection by agarose gel (1%) electrophoresis.

M.BcnIB = assay: DNA protection assay with M.BcnIB (wild-type) on phage lambda DNA; settings: 1.10 μg phage lambda DNA, cofactor 300 μM, 37° C. for 4 h, then R.BcnI; pH 7.4 (pH 6.0 for cofactor 6)
Source text: as §1, §2
Afterwards the reactions were stopped by heating to 80° C. for 10 min. A solution (10 μL) containing R.BcnI restriction endonuclease (12 u, MBI Fermentas), bovine serum albumin (0.1 mg/mL) and buffer (33 mM Tris acetate, 66 mM potassium acetate, 26.5 mM magnesium chloride, pH 7.9) was added to each dilution and incubation at 37° C. was continued for 1 h. […] Parallel control experiments were performed with phage lambda DNA in the absence of M.BcnIB and in the presence of M.BcnIB (144 ng).

M.HhaI = target: T5, M.HhaI (Haemophilus parahaemolyticus, UniProt P05102); assay: DNA protection assay with M.HhaI (wild-type) on phage lambda DNA; settings: 1.16 μg phage lambda DNA, cofactor 300 μM, 37° C. for 4 h, then R.Hin6I; pH 7.4 (pH 6.0 for cofactor 6)
T5 construct: made in house
T5 sequence (P05102 whole entry): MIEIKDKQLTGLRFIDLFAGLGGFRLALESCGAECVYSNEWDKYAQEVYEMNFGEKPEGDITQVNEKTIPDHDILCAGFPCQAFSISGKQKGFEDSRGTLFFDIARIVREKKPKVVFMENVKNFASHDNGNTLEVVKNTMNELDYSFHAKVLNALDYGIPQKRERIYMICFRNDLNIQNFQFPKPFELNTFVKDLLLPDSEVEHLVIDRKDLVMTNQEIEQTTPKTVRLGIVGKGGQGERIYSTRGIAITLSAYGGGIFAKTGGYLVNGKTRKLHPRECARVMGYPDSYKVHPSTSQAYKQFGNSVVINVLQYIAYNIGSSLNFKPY
Source text: as §1, §2, §4

Compound | specific activity of M.TaqI with the cofactor (M.TaqI [1]) [u/μg] | cofactor function for M.TaqI (transfer of group Z-R to adenine-N6) (M.TaqI [2]) | specific activity of M.TaqI-V21G with the cofactor (M.TaqI-V21G) [u/μg] | specific activity of M.HhaI-Q82A with the cofactor (M.HhaI-Q82A) [u/μg] | specific activity of M.SssI-Q142A with the cofactor (M.SssI-Q142A) [u/μg] | specific activity of M.BcnIB with the cofactor (M.BcnIB) [u/μg] | specific activity of M.HhaI with the cofactor (M.HhaI) [u/μg]
Nc1ncnc2c1ncn2C1OC(C[S+](CCC(N)C(=O)O)Cc2ccccc2)C(O)C1O (mixture of isomers) [Cofactor 9] | 640 | functions as a cofactor | 2560 | – | – | – | –
C[S+](CCC(N)C(=O)O)CC1OC(n2cnc3c(N)ncnc32)C(O)C1O (stereo not drawn) [Cofactor 1] | 40960 | – | 320 | 115 | 20 | 444 | 460
